Experimental data as given in US20100184638A1, “Galanin Receptors and Brain Injury” (NeuroTargets, Ltd., priority 2004, published 2010).
Non-standard residues stand in square brackets, D forms with d. Residues, ends and D or L forms follow the SMILES beside them. *: point of attachment. Fmoc = O=C(OCC1c2ccccc2-c2ccccc21)*; Cha = N[C@@H](CC1CCCCC1)C(=O)O; AMC = Cc1cc(=O)oc2cc(N*)ccc12

Tests used:
[1] = tested on: organotypic hippocampal cultures; assay: Glutamate-induced cell death in organotypic hippocampal cultures (propidium iodide); type: cell-based, mouse; conditions: 4 mM glutamate, 9 hour exposure, n=4
Description: Organotypic cultures were prepared as previously described (Elliott-Hunt et al. (2002) J. Neurochem. 80 416-425; Stoppini et al. (1991) J. Neurosci. Methods 37 173-182). Briefly, the hippocampi from 5-6 day old pups were rapidly removed under a dissection microscope and sectioned transversely at 400 μm using a McIlwain tissue chopper (Mickle Laboratory Engineering Co. Ltd., Gomshall, UK). […]
Staurosporine and glutamate are both known to cause excitotoxic damage to such cell cultures (Prehn et al. (1997) J. Neurochem. 68 1679-1685; Ohmori et al. (1996) Brain Res. 743 109-115). […] Neuronal damage in the area encompassing the CA1 region was assessed using the density slice function in NIH Image software (Scion Image, MD, USA) to establish signal above background. The area of the subfields expressing the exclusion dye propidium iodide was measured, and expressed as a percentage of the total area of the subfields as assessed in the bright field image. […]
To further dissect the neuroprotective role played by galanin in a more tractable in vitro system, both primary dispersed and organotypic hippocampal cultures (Elliott-Hunt, 2002) were used. […] Results are expressed as a percentage of the area expressing fluorescence as compared with the untreated “control” cultures.

[2] = tested on: organotypic hippocampal cultures; assay: Staurosporine-induced cell death in organotypic hippocampal cultures (propidium iodide); type: cell-based, mouse; conditions: for percentage cell death: n=4
Description: Organotypic cultures were prepared as previously described (Elliott-Hunt et al. (2002) J. Neurochem. 80 416-425; Stoppini et al. (1991) J. Neurosci. Methods 37 173-182). Briefly, the hippocampi from 5-6 day old pups were rapidly removed under a dissection microscope and sectioned transversely at 400 μm using a McIlwain tissue chopper (Mickle Laboratory Engineering Co. Ltd., Gomshall, UK). The slices were cultured in 95% air and 5% CO2 at 37° C. on a microporous transmembrane biopore membrane (Millipore, Poole, UK), in a 6-well plate, in 50% minimal essential medium with Earle's Salts (Gibco BRL, Paisley, UK) without L-glutamine, […] Hanks Balanced Salt Solution (Gibco BRL), 25% Horse Serum (heat inactivated; Harlan Serum Labs, Loughborough, UK), 5 mg/ml glucose (Sigma Chemical Co., Poole, UK) and […] glutamine (Sigma).
Fourteen day organotypic hippocampal cultures were placed in 0.1% BSA with serum free media for 16 hours before incubation with varying concentrations of glutamic acid for 3 hours or staurosporine for 9 hours. Staurosporine and glutamate are both known to cause excitotoxic damage to such cell cultures (Prehn et al. (1997) J. Neurochem. 68 1679-1685; Ohmori et al. (1996) Brain Res. 743 109-115). Cultures were washed with serum-free medium and incubated for a further 24 hours before imaging. Regional patterns of neuronal injury in the organotypic cultures were observed by performing experiments in the presence of propidium iodide. After membrane injury, the dye enters cells, binds to nucleic acids and accumulates, rendering the cell brightly fluorescent (Vornov et al. (1994) Stroke 25 457-465). […] Neuronal damage in the area encompassing the CA1 region was assessed using the density slice function in NIH Image software (Scion Image, MD, USA) to establish signal above background. The area of the subfields expressing the exclusion dye propidium iodide was measured, and expressed as a percentage of the total area of the subfields as assessed in the bright field image. Furthermore, for consistency in setting the parameters accurately when using the density slice function, the threshold was set against a positive control set of cultures exposed to 10 mM glutamate.
(SEQ ID NO: 1) (AstraZeneca, Montreal, Quebec, Canada), amyloid-β (1-42) (Aβ (1-42)) and the reverse Aβ (42-1) peptide (American Peptide Company, Sunnyvale, Calif. 93906). Before use in the experiments below, the Aβ (1-42) was induced to form fibrils by pre-incubation in culture medium. Specifically, 0.45 mg of Aβ peptide was dissolved in 20 μl of dimethyl sulfoxide (DMSO-Sigma) and diluted to a 100-μM stock solution in medium, which was then incubated with gentle shaking at room temperature for 24 hours.
To further dissect the neuroprotective role played by galanin in a more tractable in vitro system, both primary dispersed and organotypic hippocampal cultures (Elliott-Hunt, 2002) were used. These two techniques are complimentary since the dispersed hippocampal cultures ensure that observed effects are neuron-specific, whilst the organotypic cultures preserve the synaptic and anatomical organisation of the neuronal circuitry (Elliott-Hunt, 2002) as well as retaining many of the functional characteristics found in vivo (Adamschik et al. (2000) Brain Res. Prot. 5 153-158). The effects of staurosporine and glutamate on neuronal cell death in hippocampal cultures (Prehn, 1997; Ohmori, 1996) were studied. Cell death was visualised by propidium iodide staining. Results are expressed as a percentage of the area expressing fluorescence as compared with the untreated “control” cultures.

GALR2 = conditions: cited from earlier work
GALR1 and GALR2 = conditions: cited from earlier work

Question: With N[C@@H](CCC(=O)O)C(=O)O [glutamate, L-glutamic acid] as the compound, how does the percentage cell death ([1]; galanin knockout organotypic cultures) read?
Answer: 85±8.6%

Question: And the percentage cell death ([1]; wild-type organotypic cultures)?
Answer: 61±9.3%

Question: Which percentage cell death ([2]; 100 nM staurosporine, galanin knockout organotypic cultures) does the source give for CN[C@@H]1C[C@H]2O[C@@](C)([C@@H]1OC)n1c3ccccc3c3c4c(c5c6ccccc6n2c5c31)C(=O)NC4 [Staurosporine, staurosporine] here?
Answer: 65±10%

Question: And the percentage cell death ([2]; 100 nM staurosporine, wild-type organotypic cultures)?
Answer: 40±26%

Question: What about the percentage cell death ([2]; 1 μM staurosporine, galanin knockout organotypic cultures) of the same compound?
Answer: 68±0.5%

Question: And the percentage cell death ([2]; 1 μM staurosporine, wild-type organotypic cultures)?
Answer: 38±8%

Question: Which cell death ([2]; 100 nM AR-M1896 co-administered with 100 nM staurosporine, wild-type organotypic cultures, p<0.05) does the source give for WTLNSAGYLL [AR-M1896] here?
Answer: significantly reduced the amount of cell death

Question: What about the “reduction of staurosporine-induced cell death” value ([2]; galanin knockout organotypic cultures versus wild-type cultures (data not shown)) of the same compound?
Answer: as effective

Question: And the “effect in the absence of staurosporine” value ([2]; organotypic or primary cultures, no staurosporine)?
Answer: No significant effects

Question: And the “binding specificity for GALR2 compared to GALR1” value (GALR2)?
Answer: 500 fold

Question: Which “activation of other GPCR receptors including the neurotensin receptor” value (GALR1 and GALR2) does the source give for Cc1cc(=O)oc2cc(NC(=O)[C@H](CCCCN)NC(=O)[C@H](CC3CCCCC3)NC(=O)OCC3c4ccccc4-c4ccccc43)ccc12 [Galnon] (Fmoc-[Cha]-Lys-{AMC}) here?
Answer: also activates a number of other GPCR receptors

Question: What about the “agonistic activity at GALR1 and GALR2” value (GALR1 and GALR2) of the same compound?
Answer: equally activates and has agonistic activity to both GALR1 and GALR2
